What was measured:
[1] = DRUGMATRIX: Atrial Natriuretic Factor (ANF) radioligand binding (ligand: [125I] ANF (rat)); assay type: cell membranes, Cavia porcellus, Dunkin-Hartley, Adrenal gland, Membrane; conditions: Not Active = under 50% inhibition at 10 µM
[2] = molecular target: T1, Alpha-2C adrenergic receptor (Homo sapiens, UniProt P18825); assay: DRUGMATRIX: Adrenergic Alpha-2C radioligand binding (ligand: [3H] MK-912); assay type: cell membranes, Sf9, Membrane; conditions: sf9
T1 sequence (P18825 whole entry): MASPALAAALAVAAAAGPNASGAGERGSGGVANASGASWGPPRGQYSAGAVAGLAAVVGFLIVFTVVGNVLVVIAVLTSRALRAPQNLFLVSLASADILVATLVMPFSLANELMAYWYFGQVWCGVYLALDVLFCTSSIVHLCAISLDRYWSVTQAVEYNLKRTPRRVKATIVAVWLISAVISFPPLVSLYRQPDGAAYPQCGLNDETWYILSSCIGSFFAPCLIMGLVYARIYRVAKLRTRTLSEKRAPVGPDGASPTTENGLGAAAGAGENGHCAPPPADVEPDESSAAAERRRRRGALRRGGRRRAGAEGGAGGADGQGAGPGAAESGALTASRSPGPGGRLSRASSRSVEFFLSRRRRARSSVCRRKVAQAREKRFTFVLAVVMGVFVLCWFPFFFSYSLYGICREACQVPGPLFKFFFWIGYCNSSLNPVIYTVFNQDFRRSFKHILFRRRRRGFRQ

[3] = molecular target: Kappa-type opioid receptor (Homo sapiens, UniProt P41145); assay: DRUGMATRIX: Opiate kappa (OP2, KOP) radioligand binding (ligand: [3H] Diprenorphine); assay type: cell membranes, HEK293, Membrane; conditions: hek293; Not Active = under 50% inhibition at 10 µM
[4] = molecular target: T2, Cysteinyl leukotriene receptor 1 (Homo sapiens, UniProt Q9Y271); assay type: cell membranes, CHO-K1, Membrane; conditions: cho-k1; further: in other assays of this panel Not Active means under 50% inhibition at 10 µM
T2 sequence (Q9Y271 whole entry): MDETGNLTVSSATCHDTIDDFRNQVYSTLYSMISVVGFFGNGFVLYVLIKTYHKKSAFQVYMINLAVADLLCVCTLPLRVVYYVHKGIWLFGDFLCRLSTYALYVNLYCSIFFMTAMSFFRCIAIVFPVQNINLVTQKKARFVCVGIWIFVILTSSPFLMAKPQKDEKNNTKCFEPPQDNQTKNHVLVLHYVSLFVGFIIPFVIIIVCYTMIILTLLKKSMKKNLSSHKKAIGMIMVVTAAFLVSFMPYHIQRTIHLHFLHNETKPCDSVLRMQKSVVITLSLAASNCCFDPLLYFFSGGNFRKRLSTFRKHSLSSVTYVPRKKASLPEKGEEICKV

[5] = molecular target: Protein phosphatase 3 catalytic subunit alpha (Homo sapiens, UniProt Q08209); design: species or system Escherichia coli;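 further: inhibition of calcineurin (PP2B) enzyme activity, measured with DiFMUP as the substrate; in other assays of this panel Not Active means under 50% inhibition at 10 µM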
[6] = DRUGMATRIX: Platelet-Derived Growth Factor (PDGF) radioligand binding (ligand: [125I] PDGF); assay type: cell-based; conditions: nih3t3; Not Active = under 50% inhibition at 10 µM
[7] = molecular target: 5-hydroxytryptamine receptor 6 (Homo sapiens, UniProt P50406); assay type: cell membranes, HeLa, Membrane; conditions: hela; further: in other assays of this panel Not Active means under 50% inhibition at 10 µM
Cathepsin G = molecular target: T3, Cathepsin G (Homo sapiens, UniProt P08311); assay type: tissue-based; conditions: neutrophil;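 further: inhibition of Cathepsin G enzyme activity, tested on an AMC-conjugated peptide substrate; in other assays of this panel Not Active means under 50% inhibition at 10 µM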
T3 sequence (P08311 whole entry): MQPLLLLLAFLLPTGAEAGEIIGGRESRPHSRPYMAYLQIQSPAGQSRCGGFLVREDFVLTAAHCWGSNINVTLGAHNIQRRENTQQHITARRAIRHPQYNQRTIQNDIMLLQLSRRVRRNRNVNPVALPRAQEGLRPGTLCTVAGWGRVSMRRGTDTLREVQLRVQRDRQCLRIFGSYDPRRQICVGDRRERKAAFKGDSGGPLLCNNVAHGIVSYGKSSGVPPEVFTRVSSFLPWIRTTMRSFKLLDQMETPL

Sequence of Kappa-type opioid receptor (P41145 whole entry): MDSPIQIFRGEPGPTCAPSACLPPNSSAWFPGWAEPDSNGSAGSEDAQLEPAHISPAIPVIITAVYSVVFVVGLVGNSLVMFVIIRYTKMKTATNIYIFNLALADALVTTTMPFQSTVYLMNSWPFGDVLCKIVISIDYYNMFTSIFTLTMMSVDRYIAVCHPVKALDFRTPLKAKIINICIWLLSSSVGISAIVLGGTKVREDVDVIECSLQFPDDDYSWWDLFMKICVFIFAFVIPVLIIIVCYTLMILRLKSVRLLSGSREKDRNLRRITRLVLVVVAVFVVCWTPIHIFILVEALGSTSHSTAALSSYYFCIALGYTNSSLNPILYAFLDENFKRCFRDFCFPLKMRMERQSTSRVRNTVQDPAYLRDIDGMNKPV
Sequence of 5-hydroxytryptamine receptor 6 (P50406 whole entry): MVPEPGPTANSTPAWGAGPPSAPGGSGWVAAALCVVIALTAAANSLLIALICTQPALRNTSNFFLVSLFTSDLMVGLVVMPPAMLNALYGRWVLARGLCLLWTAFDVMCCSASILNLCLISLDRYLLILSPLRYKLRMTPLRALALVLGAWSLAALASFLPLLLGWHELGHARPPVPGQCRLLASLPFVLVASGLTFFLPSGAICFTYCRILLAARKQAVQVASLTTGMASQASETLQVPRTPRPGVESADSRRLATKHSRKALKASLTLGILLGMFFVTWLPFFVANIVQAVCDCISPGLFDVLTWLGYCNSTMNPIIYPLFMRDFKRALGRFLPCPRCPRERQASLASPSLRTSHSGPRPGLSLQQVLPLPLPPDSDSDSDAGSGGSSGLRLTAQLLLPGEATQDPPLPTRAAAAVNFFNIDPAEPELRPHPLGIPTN

COC(=O)C1=C(C)NC(C)=C(C(=O)OCC(C)C)C1c1ccccc1[N+](=O)[O-] (stereo not given) [NISOLDIPINE]
Not Active: IC50 [1] | Ki [1] | IC50 [2] | IC50 [3] | IC50 [4] | IC50 [5] | IC50 [6] | Ki [6] | IC50 [7] | IC50 (Cathepsin G)

CCOC(=O)C1=C(C)NC(C)=C(C(=O)OC)C1c1cccc([N+](=O)[O-])c1 (stereo not given) [NITRENDIPINE]
Not Active: IC50 [1] | Ki [1] | IC50 [2] | IC50 [3] | IC50 [4] | IC50 [5] | IC50 [6] | Ki [6] | IC50 [7] | IC50 (Cathepsin G)

C#C[C@]1(OC(C)=O)CC[C@H]2[C@@H]3CCC4=CC(=O)CC[C@@H]4[C@H]3CC[C@@]21C [NORETHINDRONE ACETATE]
Not Active: IC50 [1] | Ki [1] | IC50 [2] | IC50 [3] | IC50 [4] | IC50 [5] | IC50 [6] | Ki [6] | IC50 [7] | IC50 (Cathepsin G)

COc1ccc2[nH]c([S+]([O-])Cc3ncc(C)c(OC)c3C)nc2c1 (stereo not given) [OMEPRAZOLE]
Not Active: IC50 [1] | Ki [1] | IC50 [2] | IC50 [3] | IC50 [4] | IC50 [5] | IC50 [6] | Ki [6] | IC50 [7] | IC50 (Cathepsin G)

Cc1nccn1CC1CCc2c(c3ccccc3n2C)C1=O (stereo not given) [ONDANSETRON]
Not Active: IC50 [1] | Ki [1] | IC50 [2] | IC50 [3] | IC50 [4] | IC50 [5] | IC50 [6] | Ki [6] | IC50 [7] | IC50 (Cathepsin G)

CCn1cc(C(=O)O)c(=O)c2cc(F)c(N3CCN(C)CC3)cc21 [PEFLOXACIN]
Not Active: IC50 [1] | Ki [1] | IC50 [2] | IC50 [3] | IC50 [4] | IC50 [5] | IC50 [6] | Ki [6] | IC50 [7] | IC50 (Cathepsin G)

CCCCOc1ccc(OCCCN2CCOCC2)cc1 [PRAMOXINE]
Not Active: IC50 [1] | Ki [1] | IC50 [2] | IC50 [3] | IC50 [4] | IC50 [5] | IC50 [6] | Ki [6] | IC50 [7] | IC50 (Cathepsin G)

O=C(C1CCCCC1)N1CC(=O)N2CCc3ccccc3C2C1 (stereo not given) [PRAZIQUANTEL]
Not Active: IC50 [1] | Ki [1] | IC50 [2] | IC50 [3] | IC50 [4] | IC50 [5] | IC50 [6] | Ki [6] | IC50 [7] | IC50 (Cathepsin G)

CCN(CC)CCOC(=O)c1ccc(N)cc1 [PROCAINE]
Not Active: IC50 [1] | Ki [1] | IC50 [2] | IC50 [3] | IC50 [4] | IC50 [5] | IC50 [6] | Ki [6] | IC50 [7] | IC50 (Cathepsin G)

CCCN(CCC)C(=O)C(CCC(=O)O)NC(=O)c1ccccc1 (stereo not given) [PROGLUMIDE]
Not Active: IC50 [1] | Ki [1] | IC50 [2] | IC50 [3] | IC50 [4] | IC50 [5] | IC50 [6] | Ki [6] | IC50 [7] | IC50 (Cathepsin G)

NC(=O)c1cnccn1 [PYRAZINAMIDE]
Not Active: IC50 [1] | Ki [1] | IC50 [2] | IC50 [3] | IC50 [4] | IC50 [5] | IC50 [6] | Ki [6] | IC50 [7] | IC50 (Cathepsin G)

OC(CCN1CCCCC1)(c1ccccc1)C1CCCCC1 (stereo not given) [TRIHEXYPHENIDYL]
Not Active: IC50 [1] | Ki [1] | IC50 [2] | IC50 [3] | IC50 [4] | IC50 [5] | IC50 [6] | Ki [6] | IC50 [7] | IC50 (Cathepsin G)

Cc1cc2cc3c(C)cc(=O)oc3c(C)c2o1 [TRIOXSALEN]
Not Active: IC50 [1] | Ki [1] | IC50 [2] | IC50 [3] | IC50 [4] | IC50 [5] | IC50 [6] | Ki [6] | IC50 [7] | IC50 (Cathepsin G)

CCCC(CCC)C(=O)O [VALPROIC ACID]
Not Active: IC50 [1] | Ki [1] | IC50 [2] | IC50 [3] | IC50 [4] | IC50 [5] | IC50 [6] | Ki [6] | IC50 [7] | IC50 (Cathepsin G)

CCC1=C[C@@H]2CN(C1)Cc1c([nH]c3ccccc13)[C@@](C(=O)OC)(c1cc3c(cc1OC)N(C)[C@H]1[C@@](O)(C(=O)OC)[C@H](OC(C)=O)[C@]4(CC)C=CCN5CC[C@]31[C@@H]54)C2 [VINORELBINE]
Not Active: IC50 [1] | Ki [1] | IC50 [2] | IC50 [3] | IC50 [4] | IC50 [5] | IC50 [6] | Ki [6] | IC50 [7] | IC50 (Cathepsin G)
